Source: a compilation of properties of binary mixtures (doi:10.1016/j.fluid.2019.112447)

Experiment: xn = mol fraction of the nth substance listed
Settings: 101 kPa

CC[n+]1ccn(C)c1.O=S(=O)([O-])C(F)(F)F + CCC(C)O
viscosity [mPa·s]
Settings	x1 = 0.1092	x1 = 0.1945	x1 = 0.2945	x1 = 0.3938	x1 = 0.4988	x1 = 0.5952	x1 = 0.6907	x1 = 0.7986	x1 = 0.903	x1 = 1
298.15 K	3.95	5.32	6.57	7.9	10.59	15.33	22.63	–	39.43	–
303.15 K	3.47	4.65	5.76	–	–	–	19.37	–	33.21	38.31
308.15 K	3.09	4.1	5.07	–	8.23	11.65	16.75	22.22	–	32.28
313.15 K	2.75	–	4.51	5.5	–	–	–	19.09	24.05	–
318.15 K	2.46	3.24	4.03	4.94	–	9.13	12.84	16.7	–	23.86
323.15 K	2.21	2.9	3.61	4.44	5.91	8.17	–	14.66	–	20.75

CCOS(=O)(=O)[O-].CC[n+]1ccn(C)c1 + CCC(C)O
viscosity [mPa·s]
Settings	x1 = 0.1032	x1 = 0.2027	x1 = 0.2937	x1 = 0.3936	x1 = 0.4906	x1 = 0.5916	x1 = 0.6944	x1 = 0.7957	x1 = 0.8916	x1 = 1
298.15 K	4.62	–	9.73	14.02	19.79	28.15	–	–	71.7	96.2
303.15 K	4.29	–	9.16	12.67	–	24	33	44	–	75.9
308.15 K	3.46	5.31	7.53	–	14.29	20.49	27.81	36.7	–	60.7
313.15 K	2.94	–	6.51	–	13.06	–	23.65	30.7	38.7	–
318.15 K	2.56	–	5.76	8.37	11.43	15.38	20.32	26.1	32.5	40.9
323.15 K	2.03	3.36	–	7.36	10.09	13.57	17.64	22.35	27.4	33.8

CCC(C)O (centres undefined) + CCOS(=O)(=O)[O-].CC[n+]1ccn(C)c1
x2 = 0
Settings	viscosity [mPa·s]
298.15 K	2.58
303.15 K	2.27
313.15 K	1.77
318.15 K	1.58
323.15 K	1.41

CCC(C)O (centres undefined) + CC[n+]1ccn(C)c1.O=S(=O)([O-])C(F)(F)F
x2 = 0
Settings	viscosity [mPa·s]
298.15 K	2.58
303.15 K	2.27
313.15 K	1.77
318.15 K	1.58
323.15 K	1.41
